Laboratory results reported in patent publication US5883091A, “1,3,4-oxadiazine derivatives having a pesticide effect” (priority 1994, dated 1999).

Experiments:
[1] = test system: two-spotted spider mite (Tetranychus urticae); experiment: Tetranychus-Test (OP resistant/spray treatment); assay type: in vivo; conditions: after 5 days, active compound concentration 0.001%, OP resistant, spray treatment of infested bean plants, 100% = all spider mites destroyed, 0% = none destroyed; for mortality at 0.001 %: Tetranychus urticae, 120 h, read-out: destruction of spider mites (action in %)
Protocol: Tetranychus-Test (OP resistant/spray treatment)
Solvent: 3 parts by weight of dimethylformamide
Emulsifier: 1 part by weight of alkylaryl polyglycol ether
To prepare a suitable preparation of active compound, 1 part by weight of active compound is mixed with the stated amount of solvent and the stated amount of emulsifier, and the concentrate is diluted with water to the desired concentrations.
Bean plants (Phaseolus vulgaris) which are severely infested with all stages of the two-spotted spider mite (Teiranychus urticae) are sprayed with a preparation of active compound of the desired concentration.
After the desired time, the action is determined in %. 100% means that all spider mites have been destroyed; 0% means that no spider mites have been destroyed.

[2] = log p (pH 2), physical constants; assay type: physicochemical

SMILES | logD [2] | further results
FCCN1CCOC(c2ccc(Br)cc2)=N1 [A, 2-(4-Bromophenyl)-4-(2-fluoroeth-1-yl)-4H-5,6-dihydro-1,3,4-oxadiazine, reference compound] |  | destruction of spider mites (action in %) [1]: no action
Fc1cccc(F)c1C1=NN(c2ccc(-c3ccc(OC(F)(F)F)cc3)cc2)CCO1 [Example 3, 4-[4-(4-trifluoromethoxyphenyl)phenyl]-2-(2,6-difluorophenyl)-4H-5,6-dihydro-1,3,4-oxadiazine] |  | mortality at 0.001 % [1]: 95%
CC(C)(C)c1ccc(CN2CCOC(c3c(F)cccc3F)=N2)cc1 [Example 4, 2-(2,6-difluorophenyl)-4-(4-tert-butylbenzyl)-4H-5,6-dihydro-1,3,4-oxadiazine] |  | mortality at 0.001 % [1]: 98%
Clc1ccc(C2=NN(Cc3ccc(Oc4ccccc4)cc3)CCO2)c(Cl)c1 [Example 18] | 5.61 | 
FC(F)(F)c1ccc(Oc2ccc(CN3CCOC(c4cc(Cl)ccc4Cl)=N3)cc2)c(Cl)c1 [Example 19] | 6.35 | 
Brc1ccc(CN2CCOC(c3cccs3)=N2)cc1 [Example 20] | 4.26 | 
Fc1cccc(F)c1C1=NN(Cc2cc(Cl)c(OCc3ccc(Cl)cc3)c(Cl)c2)CCO1 [Example 21] | 5.67 | 
Fc1cccc(F)c1C1=NN(Cc2ccc(Br)cc2)CCO1 [Example 22] | 4.03 | 
FC(F)(F)Oc1ccc(-c2ccc(CN3CCOC(c4cccs4)=N3)cc2)cc1 [Example 23] | 5.41 | 
Clc1ccc(COc2c(Cl)cc(CN3CCOC(c4cccs4)=N3)cc2Cl)cc1 [Example 24] | 5.95 | 
Clc1ccc(Cl)c(C2=NN(Cc3cccc(Oc4ccccc4)c3)CCO2)c1 [Example 25] | 5.57 | 
FC(F)(F)c1ccc(C2=NN(Cc3ccc(Oc4ccc(C(F)(F)F)cc4Cl)cc3)CCO2)cc1 [Example 26] | 6.44 | 
Fc1ccc(CN2CCOC(c3ccc(Cl)c(Cl)c3)=N2)cc1Oc1ccccc1 [Example 27] | 6.13 | 
Fc1cccc(F)c1C1=NN(Cc2ccc(-c3ccc(OC(F)(F)F)cc3)cc2)CCO1 [Example 29] | 5.15 | 
Fc1cccc(F)c1C1=NN(Cc2ccc(-c3ccccc3)cc2)CCO1 [Example 30] | 4.49 | 
FC(F)(F)c1cccc(C2=NN(Cc3ccc(Oc4ccc(C(F)(F)F)cc4Cl)cc3)CCO2)c1 [Example 31] | 6.43 | 
Fc1ccc(C2=NN(Cc3ccc(Br)cc3)CCO2)cc1 [Example 32] | 4.73 | 
Fc1ccc(CN2CCOC(c3cc(Cl)ccc3Cl)=N2)cc1Oc1ccccc1 [Example 33] | 5.41 | 
Clc1cc(Cl)cc(C2=NN(Cc3ccc(Br)cc3)CCO2)c1 [Example 34] | 6.47 | 
Fc1cccc(C2=NN(Cc3ccc(Br)cc3)CCO2)c1 [Example 35] | 4.8 | 
Fc1cccc(C2=NN(Cc3ccc(-c4ccc(OC(F)(F)F)cc4)cc3)CCO2)c1 [Example 36] | 5.87 | 
FC(F)(F)Oc1ccc(-c2ccc(CN3CCOC(c4cc(Cl)cc(Cl)c4)=N3)cc2)cc1 [Example 37] | 7.36 | 
Fc1cccc(F)c1C1=NN(Cc2ccccc2)CCO1 [Example 38] | 3.38 | 
